Consider 13 compounds from ChEMBL document CHEMBL1201862, “PubChem BioAssay data set” (2004).

Test systems include OVCAR-5; SF-268; SK-MEL-2; MDA-N; Hs-578T; HT-29; RPMI-8226; UACC-62; U-251; T47D; OVCAR-8; ACHN; IGROV-1; HCT-15; SN12C; A549; SNB-75; SF-539; HOP-92.
Assay in all cases: NCI anticancer screen, dose series, 48 h

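Results reflect a 48-hour exposure of cells in 96-well plates to compound at five concentrations. At the GI50, growth is halved.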 Active and inactive are the calls of the source. No stated cut-off is given here; in the data, active = GI50 up to about 1.1 µM and inactive = higher. Bounds are passed on as bounds.

On to `C=C(C)[C@H]1CC23C(=O)C(C(=O)C(C)C)=C(O)[C@](C)(C[C@H]2C1(C)C)C3=O` [LALIBINONE B], for which the GI50 in the experiment with OVCAR-5 is 14.5 µM (inactive); in the experiment with SF-268, 18.1 µM (inactive); in the experiment on SK-MEL-2 it was 15.9 µM (inactive); in the experiment with MDA-N, 18.9 µM (inactive); with Hs-578T, 23 µM (inactive); with HT-29, 11.9 µM (inactive). For the same compound, the GI50 was 12.8 µM (inactive) in the experiment on RPMI-8226; 16.3 µM (inactive) with UACC-62; 19.1 µM (inactive) in the experiment on U-251; 30.9 µM (inactive) in the experiment on T47D; 17.9 µM (inactive) with OVCAR-8; 16.6 µM (inactive) in the experiment on ACHN. Moreover, the GI50 with IGROV-1 was 12.5 µM (inactive); with HCT-15, 17.2 µM; in the experiment on SN12C, 17 µM (inactive); with A549, 20.3 µM (inactive).
Regarding `O=C1CC2(CCN(Cc3ccccc3)CC2)C(=O)N1N1CCCCC1`, the GI50 with OVCAR-5, with SF-268, in the experiment with SK-MEL-2, with MDA-N, in the experiment on Hs-578T and in the experiment on HT-29 was > 100 µM (inactive) throughout. Also, the GI50 in the experiment with RPMI-8226, with UACC-62, in the experiment on U-251, with T47D, in the experiment with OVCAR-8 and with SNB-75 was > 100 µM (inactive) each time. For the same compound, the GI50 in the experiment on ACHN was > 100 µM (inactive); in the experiment with IGROV-1, > 100 µM (inactive); in the experiment on HCT-15, > 100 µM; in the experiment with SF-539, > 100 µM (inactive); with SN12C, > 100 µM (inactive); in the experiment on A549, > 100 µM (inactive).
On to `COc1ccc2c(c1)CC1COc3cc(OC)ccc3C1O2` (stereo not drawn), for which the GI50 was > 100 µM (inactive) in the experiment on OVCAR-5; 52.5 µM (inactive) with SF-268; > 100 µM (inactive) in the experiment with SK-MEL-2; > 100 µM (inactive) in the experiment on MDA-N; 65.3 µM (inactive) in the experiment on HT-29; > 100 µM (inactive) with RPMI-8226. For the same compound, the GI50 was > 100 µM (inactive) in the experiment with UACC-62; 36.6 µM (inactive) with U-251; > 100 µM (inactive) with T47D; 71.8 µM (inactive) in the experiment on OVCAR-8; > 100 µM (inactive) in the experiment on IGROV-1; > 100 µM in the experiment with HCT-15. Moreover, the GI50 in the experiment on SF-539, in the experiment with SN12C, in the experiment with HOP-92 and with A549 was > 100 µM (inactive) in each case.
Turning to `COc1cc(OC)cc(-c2nc3cc(F)ccc3s2)c1`, the GI50 in the experiment with OVCAR-5 was 24.9 µM (inactive); in the experiment with SF-268, 13.8 µM (inactive); in the experiment with SK-MEL-2 it was 23.6 µM (inactive); in the experiment on MDA-N, > 100 µM (inactive); in the experiment on HT-29 it was > 100 µM (inactive); in the experiment with RPMI-8226, > 100 µM (inactive). Moreover, the GI50 in the experiment on UACC-62 was 16.4 µM (inactive); in the experiment on U-251, 15.1 µM (inactive); in the experiment on T47D, 10.5 µM (inactive); with OVCAR-8, 30.8 µM (inactive); in the experiment with ACHN, 14.5 µM (inactive); in the experiment with IGROV-1, 12.3 µM (inactive). The GI50 in the experiment with HCT-15 was 55.1 µM; in the experiment with SF-539, 15.8 µM (inactive); with SN12C, 36.4 µM (inactive); in the experiment on A549, > 100 µM (inactive).
As for `Cn1nc(C(=O)N2CC(CCl)c3c2cc([N+](=O)[O-])c2ccccc32)cc1NC(=O)Nc1cc(C(=O)N2CC(CCl)c3c2cc([N+](=O)[O-])c2ccccc32)nn1C` (stereo not drawn), the GI50 was > 100 µM (inactive) in the experiment with OVCAR-5; 48.5 µM (inactive) in the experiment on SF-268; > 100 µM (inactive) with SK-MEL-2; > 100 µM (inactive) in the experiment on MDA-N; > 100 µM (inactive) in the experiment with RPMI-8226; > 100 µM (inactive) in the experiment with UACC-62. Moreover, the GI50 was 68.9 µM (inactive) in the experiment on U-251; > 100 µM (inactive) with T47D; > 100 µM (inactive) in the experiment on SNB-75; > 100 µM (inactive) in the experiment on ACHN; > 100 µM in the experiment with HCT-15; 0.0745 µM (active) in the experiment on SF-539. Besides, the GI50 with SN12C, in the experiment with HOP-92 and with A549 was > 100 µM (inactive) in each case.
Take `O=C1OS2(OCc3cccc4cccc2c34)c2ccccc21` (stereo not drawn): the GI50 in the experiment with OVCAR-5, in the experiment with SF-268, in the experiment with SK-MEL-2, in the experiment with MDA-N, in the experiment on HT-29 and in the experiment with RPMI-8226 was > 100 µM (inactive) throughout. In addition, the GI50 in the experiment on UACC-62, in the experiment on U-251, in the experiment with T47D, in the experiment with SNB-75, in the experiment on ACHN and in the experiment with IGROV-1 was > 100 µM (inactive) each time. The GI50 in the experiment on HCT-15 was > 100 µM; with SF-539, > 100 µM (inactive); with SN12C it was > 100 µM (inactive); in the experiment with HOP-92, > 100 µM (inactive); in the experiment with A549, > 100 µM (inactive).
As to `Cc1c(/C=N/NC(=S)Nc2cccc(Cl)c2)c(=O)n(-c2ccccc2)n1C`, the GI50 in the experiment with SF-268 was 16.4 µM (inactive); with SK-MEL-2, 18.6 µM (inactive); in the experiment with Hs-578T, 13.9 µM (inactive); with HT-29, 27.9 µM (inactive); in the experiment on RPMI-8226, 40.9 µM (inactive); with UACC-62, 30.7 µM (inactive). Moreover, the GI50 in the experiment with U-251 was 20.7 µM (inactive); with T47D it was 30.4 µM (inactive); with OVCAR-8 it was 14.1 µM (inactive); in the experiment on SNB-75, 15 µM (inactive); in the experiment with ACHN it was 14.7 µM (inactive); in the experiment on IGROV-1, 18.2 µM (inactive). For the same compound, the results for the GI50 with HCT-15, in the experiment with SF-539 and in the experiment on HOP-92 were 3.91 µM, 17.1 µM (inactive) and 13.3 µM (inactive), respectively.
As to `C/C(CC1SCCCS1)=C(/C)CC1SCCCS1`, the GI50 with OVCAR-5, with SF-268, with SK-MEL-2, in the experiment with MDA-N, in the experiment on Hs-578T and in the experiment with HT-29 was > 100 µM (inactive) in each case. For the same compound, the GI50 in the experiment on RPMI-8226, with UACC-62, in the experiment on T47D, with OVCAR-8, with SNB-75 and in the experiment with ACHN was > 100 µM (inactive) throughout. The GI50 with IGROV-1 is > 100 µM (inactive); with HCT-15, > 100 µM; with SF-539, > 100 µM (inactive); in the experiment with SN12C it was > 100 µM (inactive); in the experiment with A549 it was > 100 µM (inactive).
Consider `C1CSC[C@H]2COC[C@@H](CSCCS1)S2`, for which the GI50 in the experiment with OVCAR-5, in the experiment with SF-268, in the experiment with MDA-N, with HT-29, with U-251 and in the experiment on T47D was > 100 µM (inactive) throughout. Besides, the GI50 in the experiment on OVCAR-8 is > 100 µM (inactive); in the experiment on SNB-75, 56 µM (inactive); in the experiment with HCT-15, > 100 µM; in the experiment on SF-539, > 100 µM (inactive); in the experiment with SN12C it was > 100 µM (inactive); in the experiment on HOP-92, > 100 µM (inactive). In addition, the GI50 in the experiment with A549 was > 100 µM (inactive).
Take `COc1c(-c2cccs2)oc2c(CC(=O)O)cccc2c1=O`: the GI50 in the experiment with OVCAR-5 is > 100 µM (inactive); in the experiment on SK-MEL-2 it was > 100 µM (inactive); in the experiment with MDA-N, > 100 µM (inactive); in the experiment on RPMI-8226, 0.23 µM (active); in the experiment on UACC-62 it was > 100 µM (inactive); with U-251 it was > 100 µM (inactive). In addition, the GI50 in the experiment on T47D, with IGROV-1, with SF-539, in the experiment with SN12C and with A549 was > 100 µM (inactive) each time.
Take `COc1cc(C2c3cc4c(cc3[C@@H](Nc3ccc(F)cc3)C3CO[C@@H](O)[C@H]23)OCO4)cc(OC)c1O` (stereo partly drawn): the GI50 with OVCAR-5 is 1.46 µM (inactive); with SF-268, 6.71 µM (inactive); with MDA-N it was 22.2 µM (inactive); with Hs-578T it was 0.697 µM (active); with RPMI-8226, 2.26 µM (inactive); in the experiment on U-251 it was 1.69 µM (inactive). The GI50 is 3.72 µM (inactive) with T47D; 6.01 µM (inactive) in the experiment with OVCAR-8; 4.83 µM (inactive) in the experiment with SNB-75; 1.05 µM (active) in the experiment on ACHN; 7.62 µM (inactive) in the experiment with IGROV-1; 3.89 µM in the experiment on HCT-15. Moreover, the GI50 in the experiment with SF-539 is 1.03 µM (active); in the experiment with SN12C it was 5.12 µM (inactive); in the experiment on A549, 0.853 µM (active).
Regarding `COc1ccc2c(c1)c1c(n2CCN2CCCCC2)-c2ccccc2CC1`, the GI50 in the experiment on OVCAR-5 is 16.9 µM (inactive); with SF-268, 13.8 µM (inactive); in the experiment with SK-MEL-2 it was 15.2 µM (inactive); with Hs-578T, 13.5 µM (inactive); with HT-29, 4.48 µM (inactive); with RPMI-8226 it was 14.7 µM (inactive). Also, the GI50 with U-251 was 14.4 µM (inactive); with T47D it was 15.1 µM (inactive); with OVCAR-8 it was 14.9 µM (inactive); with SNB-75, 14.6 µM (inactive); in the experiment with ACHN, 17.2 µM (inactive); in the experiment with IGROV-1 it was 11.6 µM (inactive). In addition, the GI50 in the experiment on HCT-15 was 11.5 µM; in the experiment with SF-539 it was 13.6 µM (inactive); in the experiment with SN12C, 16.9 µM (inactive); with HOP-92 it was 15.8 µM (inactive); with A549, 16.4 µM (inactive).
Consider `C/C=C1\C(=O)O[C@H]2C/C(C)=C/CC/C(C)=C/CC[C@@]3(C)O[C@@H]3C[C@@H]12`, for which the GI50 in the experiment on OVCAR-5 is > 100 µM (inactive); in the experiment with SF-268, > 100 µM (inactive); with SK-MEL-2, > 100 µM (inactive); with MDA-N it was > 100 µM (inactive); in the experiment with HT-29 it was > 100 µM (inactive); in the experiment with RPMI-8226 it was 74.1 µM (inactive). The GI50 in the experiment with UACC-62 was > 100 µM (inactive); with U-251, 85.5 µM (inactive); in the experiment on T47D, > 100 µM (inactive); with OVCAR-8, > 100 µM (inactive); in the experiment with SNB-75 it was > 100 µM (inactive); in the experiment with ACHN it was > 100 µM (inactive). The GI50 with IGROV-1 is 61.1 µM (inactive); in the experiment on HCT-15 it was 54.3 µM; in the experiment on SF-539, > 100 µM (inactive); in the experiment with SN12C, > 100 µM (inactive); with A549, > 100 µM (inactive).
